Source: patent publication US10292940B2, “Hyaluronic acid-based amphiphilic polymer, preparation method and application thereof” (BrightGene Bio-Medical Technology Co., Ltd., priority 2015, dated 2019)
Where two headings read alike, the source gives them in different places.

Tests used:
MCF-7/ADR tumor [1] = assay: Ex vivo imaging of organs of tumor-bearing nude mice; type: in vivo; conditions: DOX about 15 mg/kg, 10 h
Description: After 10 h, the heart, liver, spleen, lung, kidney and tumor block were collected, washed and fixed on a black plastic plate, which was then placed in a Maestro in vivo imaging system, and the intensity of DOX distribution in vivo was measured at an emission wavelength of 523 nm.

MCF-7/ADR tumor [2] = assay: Bio-distribution in organs of tumor-bearing nude mice; type: in vivo; conditions: DOX about 15 mg/kg, tail vein, after 10 h
MCF-7/ADR tumor [3] = assay: Anti-tumor effect in nude mice bearing drug-resistant breast-cancer tumor
Description: (§1) Tumor-bearing nude mice with a tumor size of 50 mm^3 were randomly divided into three groups (six in each group), and this day is set to day 0. […] Effects of drug-loaded micelles on tumor growth in nude mice were regularly measured with a caliper. Changes in body weight of nude mice were regularly weighed with a balance. The tumor size was obtained based on a formula V=0.5×L×W×H […] of the longest points of the tumor; W is the length of the shortest points of the tumor; H is the height of the tumor). After 24 days, one mouse was randomly taken from each group and was killed by neck and spine dislocation, and the heart, liver and tumor of each mouse were removed and fixed with 4% formaldehyde, sliced and stained with hematoxylin and eosin (H & E) and subjected to histological analysis. The remaining nude mice were still observed. Mice were considered to be died when the nude mice died during treatment, or the tumor volume exceeded 1000 mm^3. Relative tumor volume (%)=tumor volume/tumor volume on day 0×100%. Relative weight change (%)=body weight of nude mice/body weight of nude mice on day 0×100%.

[4] = tested on: LP1 tumor (multiple myeloma)
Description: as §1, with “[…]” for “50 mm^3”, “V=0.5×L×W×H (L” for “V=0.5×L×W×H”, “[…]” for “nude mice/body”

[5] = Blood circulation in mice after tail vein injection; conditions: DOX 15 mg/kg, up to 24 h
Description: Six about 5-8 weeks old nude mice weighing 18-22 g were randomly divided into two groups, and each group was administered with DOX-loaded HA-Lys-LA crosslinked nanoparticles (MnHA=35 kDa, DS=10%, DLC=12%) or free DOX (DOX dosage being 15 mg/kg) via tail vein injection. 10 μL of blood was withdrawn from the tail vein each time at different time points after injection for 2 minutes, 15 minutes, 30 minutes, 1 h, 2 h, 4 h, 6 h, 8 h, 12 h, 24 h. After the blood was withdrawn, the blood sample was weighed and dissolved in 100 μL of 1% Triton solution, and then 1 mL of 0.75 mol/L hydrochloric acid isopropanol solution was added thereto. The mixture was allowed to stand overnight in dark at −20° C. After centrifugation, the supernatant was subjected to fluorescence test. % ID/g=(FL sample×(V Triton+V hydrochloric acid))/(M blood×FL standard×V standard×standard dilution factor)×100%
Six about 5-8 weeks old nude mice weighing 18-22 g were randomly divided into two groups, and each group was administered with DOX-loaded HA-Lys-LA crosslinked nanoparticles (MnHA=35 kDa, DS=40%, DLC=20%) or free DOX (DOX dosage being 15 mg/kg) via tail vein injection. […] After centrifugation, the supernatant was subjected to fluorescence test. % ID/g=(FL sample×(V Triton+V hydrochloric acid))/(M blood×FL standard×V standard×standard dilution factor)×100% […]

Structure (SMILES): COc1cccc2c1C(=O)c1c(O)c3c(c(O)c1C2=O)C[C@@](O)(C(=O)CO)C[C@@H]3O[C@H]1C[C@H](N)[C@H](O)[C@H](C)O1 [free DOX, doxorubicin]
- DOX distribution in tumor and organs (ex vivo fluorescence) (MCF-7/ADR tumor [1]): almost did not concentrate at the tumor site
- enrichment of DOX at the tumor site (MCF-7/ADR tumor [2]): 0.63 % ID/g
- reduction of body weight of nude mice (MCF-7/ADR tumor [3]; DOX about 7.5 mg/kg): 28%
- side effects (MCF-7/ADR tumor [3]; DOX about 7.5 mg/kg): large side effects
- time within which all mice died (MCF-7/ADR tumor [3]; DOX about 7.5 mg/kg): ≤ 28 days
- tumor volume growth (MCF-7/ADR tumor [3]; DOX about 7.5 mg/kg, tail vein): could not inhibit tumor growth
- H&E histology of heart and liver (MCF-7/ADR tumor [3]; after 24 days): liver corresponding to the free DOX group was greatly damaged, and myocardial cell atrophied
- H&E histology of tumor tissue (MCF-7/ADR tumor [3]; after 24 days): grew vigorously
- reduction of body weight of nude mice ([4]; DOX about 7.5 mg/kg): about 34%
- side effects / tolerance ([4]; DOX about 7.5 mg/kg): large side effects
- time within which all mice died ([4]; DOX about 7.5 mg/kg): ≤ 15 days
- tumor volume growth / therapeutic effect ([4]; DOX about 7.5 mg/kg, tail vein): could not inhibit tumor growth
- side effects / tolerance ([4]; DOX about 7.5 mg/kg, listed as free drug): not tolerated
- H&E histology of heart and liver ([4]; after 24 days): liver corresponding to the free DOX group was greatly damaged, and myocardial cell atrophied
- H&E histology of tumor tissue ([4]; after 24 days): grew vigorously
- blood circulation (DOX in mice blood) [5]: almost not detected in mice blood after 2 h
